These are literature values, as cited in patent publication US20250099634A1, “METHOD OF TREATING CANCER” (Novartis AG, priority 2023, published 2025).

This data set concerns G1-2 midgut and pancreatic NET. The following applies: 120 mg/month, cited from earlier work.

For the molecule `CC(C)[C@@H]1NC(=O)[C@H](CCCCN)NC(=O)[C@@H](Cc2c[nH]c3ccccc23)NC(=O)[C@H](Cc2ccc(O)cc2)NC(=O)[C@@H](NC(=O)[C@H](N)Cc2ccc3ccccc3c2)CSSC[C@@H](C(=O)N[C@H](C(N)=O)[C@@H](C)O)NC1=O` [lanreotide], the “median PFS” value is “not reached”. The “HR for progression or death with lanreotide vs. placebo” value (95% CI 0.30 to 0.73) is 0.47.
